The values below come from ChEMBL document CHEMBL1201862, “PubChem BioAssay data set” (2004).

A word on the AC50: it is the concentration at which the activity in the assay is half-maximal. Usually EC50 stands for the concentration needed to bring the measured effect to its halfway point. As a reminder, the Ki is the equilibrium dissociation constant of an inhibitor or competing ligand from its target. Broadly, the CC50 is the concentration that lowers cell viability or growth by half.

Active and inactive are the calls of the source.

The target of assay [1] is T1, Microphthalmia-associated transcription factor (Homo sapiens, UniProt O75030).
T1 sequence (O75030 whole entry): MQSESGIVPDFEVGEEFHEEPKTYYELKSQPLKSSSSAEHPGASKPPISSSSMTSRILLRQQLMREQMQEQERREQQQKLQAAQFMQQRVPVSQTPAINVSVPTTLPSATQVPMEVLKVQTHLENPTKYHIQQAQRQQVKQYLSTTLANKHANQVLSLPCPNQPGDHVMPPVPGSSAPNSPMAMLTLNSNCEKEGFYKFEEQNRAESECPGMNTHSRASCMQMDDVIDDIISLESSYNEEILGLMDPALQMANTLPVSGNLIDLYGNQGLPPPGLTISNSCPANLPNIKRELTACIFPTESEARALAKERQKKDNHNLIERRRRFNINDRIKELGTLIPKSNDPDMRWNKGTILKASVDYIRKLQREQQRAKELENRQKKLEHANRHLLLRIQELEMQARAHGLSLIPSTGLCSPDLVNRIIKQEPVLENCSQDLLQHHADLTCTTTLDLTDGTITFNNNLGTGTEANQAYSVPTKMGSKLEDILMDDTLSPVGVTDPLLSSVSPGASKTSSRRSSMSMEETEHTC
The experiment in a line: reducers of TRPM1 reporter luminescence, concentration series – cell-based, SK-MEL-5, cherry-picked, set 3, MITF inhibitor project, dose response (AID 493073).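 Note: SK-MEL-5 melanoma cells with luciferase driven by the MITF target TRPM1 promoter.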 Format: functional.

A further assay deals with Melanocortin receptor 4 (Homo sapiens, UniProt P32245). Format: functional, cell-based.
Melanocortin receptor 4, sequence (P32245 whole entry): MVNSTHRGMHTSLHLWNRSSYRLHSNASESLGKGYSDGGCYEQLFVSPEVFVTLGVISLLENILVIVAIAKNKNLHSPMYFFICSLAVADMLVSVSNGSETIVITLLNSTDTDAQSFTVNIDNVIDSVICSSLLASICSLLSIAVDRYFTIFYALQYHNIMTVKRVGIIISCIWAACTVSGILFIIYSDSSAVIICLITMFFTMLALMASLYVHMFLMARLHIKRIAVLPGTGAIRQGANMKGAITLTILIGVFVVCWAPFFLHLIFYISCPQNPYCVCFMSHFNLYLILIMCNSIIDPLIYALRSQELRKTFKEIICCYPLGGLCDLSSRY
Assay [2] deals with DNA damage-inducible transcript 3 protein (Mus musculus, UniProt P35639). It counts as functional, Cricetulus griseus.
DNA damage-inducible transcript 3 protein, sequence (P35639 whole entry): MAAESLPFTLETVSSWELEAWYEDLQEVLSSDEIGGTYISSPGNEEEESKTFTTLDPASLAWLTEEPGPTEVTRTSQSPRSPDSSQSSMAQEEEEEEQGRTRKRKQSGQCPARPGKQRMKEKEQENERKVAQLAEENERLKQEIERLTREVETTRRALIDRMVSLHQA
Assay [3] in a line: Trypanosoma cruzi growth suppression in host cells – NIH3T3 host cells, beta-gal luminescence, confirmation (AID 2044).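 Note: intracellular parasites grown in NIH/3T3 mouse fibroblasts as host cells; luminescent beta-galactosidase reporter signal from transgenic T. cruzi replicating inside host cells; inhibitors lower the luminescence signal.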 Format: functional, cell-based.
Assay [4] has as its target T2, Nucleotide-binding oligomerization domain-containing protein 2 (Homo sapiens, UniProt Q9HC29). The assay can be described thus: inhibition of NOD2-driven NF-kB reporter – cell-based, luminescence, uHTS, HEK293 (AID 1566). Format: functional.
Assay [5] has as its system HEK293. The assay can be described thus: SAR analysis of compounds that are cytotoxic to HEK293 - Set 2. [Related pubchem assays (depositor defined):AID1575, AID1578, AID1849, AID2001, AID2333, AID2334, AID2335, AID2337, AID2800]. It counts as functional, cell-based. The note with it: Homo sapiens.
The target of assay [6] is T3, Nucleotide-binding oligomerization domain-containing protein 1 (Homo sapiens, UniProt Q9Y239).
T3 sequence (Q9Y239 whole entry): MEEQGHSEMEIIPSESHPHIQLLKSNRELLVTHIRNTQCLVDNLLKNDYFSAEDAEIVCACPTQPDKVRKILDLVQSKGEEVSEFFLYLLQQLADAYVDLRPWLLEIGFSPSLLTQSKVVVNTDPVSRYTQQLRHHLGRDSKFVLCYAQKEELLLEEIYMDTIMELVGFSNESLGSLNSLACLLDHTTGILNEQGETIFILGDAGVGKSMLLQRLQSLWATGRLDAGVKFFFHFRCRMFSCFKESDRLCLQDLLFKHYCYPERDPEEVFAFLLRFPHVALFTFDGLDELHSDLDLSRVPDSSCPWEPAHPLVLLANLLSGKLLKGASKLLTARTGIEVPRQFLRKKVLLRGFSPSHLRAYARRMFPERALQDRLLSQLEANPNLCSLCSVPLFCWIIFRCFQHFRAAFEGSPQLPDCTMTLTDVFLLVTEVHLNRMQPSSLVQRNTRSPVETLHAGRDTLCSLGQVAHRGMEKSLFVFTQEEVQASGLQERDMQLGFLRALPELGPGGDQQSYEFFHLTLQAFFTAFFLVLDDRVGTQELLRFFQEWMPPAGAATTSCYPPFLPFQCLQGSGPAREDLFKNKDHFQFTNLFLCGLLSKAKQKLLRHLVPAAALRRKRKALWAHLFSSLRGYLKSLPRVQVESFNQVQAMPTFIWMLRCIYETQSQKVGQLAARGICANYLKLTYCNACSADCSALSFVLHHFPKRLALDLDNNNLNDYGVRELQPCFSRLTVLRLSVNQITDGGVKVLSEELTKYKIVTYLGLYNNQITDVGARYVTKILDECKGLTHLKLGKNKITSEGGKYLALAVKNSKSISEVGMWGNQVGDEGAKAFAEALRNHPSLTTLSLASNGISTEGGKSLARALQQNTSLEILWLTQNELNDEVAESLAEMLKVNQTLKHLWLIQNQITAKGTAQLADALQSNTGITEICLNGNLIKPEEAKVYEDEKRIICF
The experiment in a line: blockers of NOD1 pathway activity – revised, SAR follow-up (AID 2333). Format: functional.

Assay [7] concerns HEK293. The experiment in a line: inhibition of NOD1-driven NF-kB reporter – cell-based, luminescence, uHTS, primary screen (AID 1578). It counts as functional. The note with it: Homo sapiens.
Assay [8] concerns HEK293. The experiment in a line: cells. Format: functional, cell-based. The settings on record: Homo sapiens.
Assay [9] deals with T4, Interleukin-8 (Homo sapiens, UniProt P10145).
T4 sequence (P10145 whole entry): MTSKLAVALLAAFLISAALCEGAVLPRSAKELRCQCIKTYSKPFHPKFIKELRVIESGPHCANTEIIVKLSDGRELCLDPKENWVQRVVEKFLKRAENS
The assay can be described thus: SAR analysis of GM-Tri-DAP induced IL-8 secretion in MCF-7/NOD1 cells - Set 2. [Related pubchem assays (depositor defined):AID1575, AID1578, AID2333]. It counts as functional, cell-based.

A short description of assay [10]: NIH3T3 cell viability loss – ATP luminescence, mouse fibroblasts, counter-screen, dose response (AID 2010).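 Note: cells exposed to compound for about 90 hours before reading.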 It counts as functional, cell-based.
Assay [11] relates to HEK293. The assay can be described thus: cells. Format: functional, cell-based. The note with it: Homo sapiens. The source holds these as a separate data set.
For assay [12], the system named is HEK293. The experiment in a line: cells. The note with it: Homo sapiens.
The target of assay [13] is T3, Nucleotide-binding oligomerization domain-containing protein 1. The assay can be described thus: SAR analysis of compounds that inhibit NOD1 - Set 2. [Related pubchem assays (depositor defined):AID1566, AID1575, AID1578, AID1849, AID1852, AID2333, AID2335, AID2798]. It counts as functional.
For assay [14], the target named is T4, Interleukin-8. The experiment in a line: SAR analysis of Tumor necrosis factor alpha (TNF-alpha) induced IL-8 secretion in MCF-7/NOD1 cells - Set 2. [Related pubchem assays (depositor defined):AID1575, AID2250, AID2260]. Format: functional, cell-based.
For assay [15], the system named is HEK293. The assay can be described thus: NOD2 signaling inhibitors in MDP-stimulated cells, cell-based, uHTS, luminescence (AID 2001). It counts as functional. The note with it: Homo sapiens.
For a further assay, the target named is Tumor necrosis factor (Homo sapiens, UniProt P01375). The assay can be described thus: analog potency on TNFa NF-kB signaling – cell-based, revised, SAR follow-up (AID 2337). Format: functional.
Tumor necrosis factor, sequence (P01375 whole entry, the tested form may be a part): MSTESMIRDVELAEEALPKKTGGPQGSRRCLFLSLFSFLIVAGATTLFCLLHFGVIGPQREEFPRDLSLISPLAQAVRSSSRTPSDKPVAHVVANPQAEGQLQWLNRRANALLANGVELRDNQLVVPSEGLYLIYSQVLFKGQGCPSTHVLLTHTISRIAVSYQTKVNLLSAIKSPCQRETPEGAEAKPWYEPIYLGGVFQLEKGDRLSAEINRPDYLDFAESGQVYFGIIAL
The target in assay [16] is T2, Nucleotide-binding oligomerization domain-containing protein 2. The experiment in a line: inhibition of NOD2 signaling – set 2, SAR follow-up (AID 2475). It counts as functional.
The target is the same in assay [17]. The assay can be described thus: PubChem AID 2334. It counts as functional.
The test system of assay [18] is HEK293. The experiment in a line: cells. It counts as functional, cell-based. The note with it: Homo sapiens. The source holds these as a separate data set.
A further assay has as its system J774.A1. The assay can be described thus: Confirmation of image-based Screening Assay for Inhibitors of Phagocytosis. [Related pubchem assays (depositor defined):AID1029, AID1643]. Format: functional, cell-based. The settings on record: Mus musculus.
For assay [19], the system named is Streptococcus sp. 'group A'. The experiment in a line: Streptococcus pyogenes SK(-)GAS viability under kanamycin – luminescence, BacTiterGlo, confirmation, counter-screen for streptokinase expression inhibitor project, dose response (AID 1900). It counts as functional, organism-based.
The target of a further assay is fMet-Leu-Phe receptor (Homo sapiens, UniProt P21462). The assay can be described thus: formyl peptide receptor binders – dose response (AID 519). Format: functional.
The target in assay [20] is T5, Probable nicotinate-nucleotide adenylyltransferase (Staphylococcus aureus (strain N315), UniProt P65502). It counts as functional, Staphylococcus aureus subsp. aureus N315. The note with it: read-out: IC50_Mean.
T5 sequence (P65502 whole entry): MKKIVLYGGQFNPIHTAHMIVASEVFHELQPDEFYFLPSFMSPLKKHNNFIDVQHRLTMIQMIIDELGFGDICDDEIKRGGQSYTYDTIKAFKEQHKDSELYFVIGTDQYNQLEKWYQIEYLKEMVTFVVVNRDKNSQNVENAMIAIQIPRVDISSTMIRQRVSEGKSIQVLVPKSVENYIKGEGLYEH
For the next assay, the system named is Vero. The experiment in a line: viability of Vero cells under compound – cytotoxicity control for flavivirus capping enzyme inhibitors (AID 588742). It counts as functional. The note with it: Chlorocebus sabaeus.
For another assay, the target named is Beta-galactosidase (Escherichia coli, UniProt Q8VNN2). The assay can be described thus: detection-enzyme interference by beta-gal modulators – biochemical, E. coli enzyme, set 3, artefact control for CCR6 antagonist project, dose response (AID 504712). Format: functional.
Assay [21] addresses T6, Fatty acid synthase (Homo sapiens, UniProt P49327). The experiment in a line: inhibition of human FAS-TE enzyme activity – biochemical, endpoint fluorescence intensity, uHTS hits, dose response (AID 624327).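 Note: fluorescence from hydrolysis of an O-methyl fluorescein acyl ester substrate by the enzyme.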 Format: functional.
Another assay concerns Streptococcus. The assay can be described thus: GAS UMAA2166 growth inhibition – luminescence, BacTiterGlo, counter-screen for streptokinase expression inhibitor project, dose response (AID 1915).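 Note: potency for reduction of bacterial viability or growth.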 Format: functional, organism-based.
Another assay deals with Genome polyprotein (dengue virus type 2, UniProt P29990). The experiment in a line: flavivirus cap methylation enzyme inhibition – biochemical, confirmation dose response, primary screen (AID 588689). It counts as functional.
Assay [22] concerns the target T5, Probable nicotinate-nucleotide adenylyltransferase. Format: functional, Staphylococcus aureus subsp. aureus N315.
Assay [23] concerns the target T6, Fatty acid synthase. The experiment in a line: inhibition of human FAS-TE enzyme activity – biochemical, kinetic fluorescence intensity, dose response (AID 624326).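 Note: rate of fluorescence rise from hydrolysis of a fluorogenic O-methyl fluorescein ester substrate.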 Format: functional.
The target in assay [24] is T7, Protein phosphatase methylesterase 1 (Homo sapiens, UniProt Q9Y570). The experiment in a line: endogenous PME-1 and serine hydrolase inhibition – cell lysate, mouse brain cytosol, FP-rhodamine, gel ABPP, selectivity assay for PME-1 inhibitor project, dose response, panel member PME-1 Assay Panel member description: Inhibition of endogenously expressed PME-1 (AID 2366).
T7 sequence (Q9Y570 whole entry): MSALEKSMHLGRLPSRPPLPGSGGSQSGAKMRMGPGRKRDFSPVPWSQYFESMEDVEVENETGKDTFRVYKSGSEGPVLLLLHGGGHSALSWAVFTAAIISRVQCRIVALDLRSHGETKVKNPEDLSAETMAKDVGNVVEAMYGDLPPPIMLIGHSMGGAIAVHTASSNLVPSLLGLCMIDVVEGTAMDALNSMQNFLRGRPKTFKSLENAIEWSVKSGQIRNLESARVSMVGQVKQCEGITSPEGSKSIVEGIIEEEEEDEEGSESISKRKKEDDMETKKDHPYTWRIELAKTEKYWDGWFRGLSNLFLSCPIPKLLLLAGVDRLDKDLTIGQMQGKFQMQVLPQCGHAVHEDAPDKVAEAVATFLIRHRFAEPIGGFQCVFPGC

For assay [25], the target named is T7, Protein phosphatase methylesterase 1. The assay can be described thus: Late stage results from the probe development effort to identify inhibitors of the protein methylesterase PME-1: Gel-based Activity-Based Protein Profiling (ABPP) IC50: Purified enzyme. Format: functional.
A further assay has as its target Bcl-2-like protein 10 (Homo sapiens, UniProt Q9HD36). The assay can be described thus: Bcl-B/TR3 peptide binding disruption – biochemical, fluorescence polarization, FITC-TR3 peptide, selectivity assay for Bfl-1 inhibitor project, primary screen (AID 748).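 Note: fluorescence polarization from a fluorescein-labelled TR3 peptide binding purified Bcl-B.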 On the technique in general: Polarisation of emitted light reports the rotation of a fluorescent probe.
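Throughout, for IC50 Mean: confirmatory dose-response retesting of NadD inhibitor hits first found in an ultra-high-throughput screen.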

T2 sequence (Q9HC29 whole entry, the tested form may be a part): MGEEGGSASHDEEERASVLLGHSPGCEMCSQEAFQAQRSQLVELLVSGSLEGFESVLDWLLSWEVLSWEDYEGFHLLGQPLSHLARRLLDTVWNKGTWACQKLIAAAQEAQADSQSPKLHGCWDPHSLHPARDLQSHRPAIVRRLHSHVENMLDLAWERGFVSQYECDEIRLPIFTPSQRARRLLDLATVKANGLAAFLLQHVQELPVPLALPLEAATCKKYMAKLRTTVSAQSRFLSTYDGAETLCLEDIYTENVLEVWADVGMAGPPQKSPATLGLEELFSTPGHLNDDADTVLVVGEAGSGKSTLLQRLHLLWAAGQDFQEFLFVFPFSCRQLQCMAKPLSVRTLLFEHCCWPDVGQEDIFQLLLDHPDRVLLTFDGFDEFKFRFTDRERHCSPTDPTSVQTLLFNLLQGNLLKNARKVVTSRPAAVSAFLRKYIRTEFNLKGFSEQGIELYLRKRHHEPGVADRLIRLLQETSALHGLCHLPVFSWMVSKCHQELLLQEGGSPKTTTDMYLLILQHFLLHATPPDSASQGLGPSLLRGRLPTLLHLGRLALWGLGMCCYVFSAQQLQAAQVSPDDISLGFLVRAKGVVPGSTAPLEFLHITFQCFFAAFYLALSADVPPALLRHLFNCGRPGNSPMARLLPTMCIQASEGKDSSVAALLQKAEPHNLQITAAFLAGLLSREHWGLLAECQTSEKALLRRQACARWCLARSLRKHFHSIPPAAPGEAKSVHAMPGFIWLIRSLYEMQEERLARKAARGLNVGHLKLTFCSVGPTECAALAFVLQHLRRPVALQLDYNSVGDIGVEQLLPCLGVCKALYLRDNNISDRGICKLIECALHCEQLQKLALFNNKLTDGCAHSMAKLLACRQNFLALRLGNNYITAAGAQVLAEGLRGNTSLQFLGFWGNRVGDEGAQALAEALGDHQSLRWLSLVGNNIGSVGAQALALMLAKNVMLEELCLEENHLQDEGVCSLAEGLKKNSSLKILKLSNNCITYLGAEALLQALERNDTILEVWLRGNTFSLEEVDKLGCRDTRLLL
T6 sequence (P49327 whole entry): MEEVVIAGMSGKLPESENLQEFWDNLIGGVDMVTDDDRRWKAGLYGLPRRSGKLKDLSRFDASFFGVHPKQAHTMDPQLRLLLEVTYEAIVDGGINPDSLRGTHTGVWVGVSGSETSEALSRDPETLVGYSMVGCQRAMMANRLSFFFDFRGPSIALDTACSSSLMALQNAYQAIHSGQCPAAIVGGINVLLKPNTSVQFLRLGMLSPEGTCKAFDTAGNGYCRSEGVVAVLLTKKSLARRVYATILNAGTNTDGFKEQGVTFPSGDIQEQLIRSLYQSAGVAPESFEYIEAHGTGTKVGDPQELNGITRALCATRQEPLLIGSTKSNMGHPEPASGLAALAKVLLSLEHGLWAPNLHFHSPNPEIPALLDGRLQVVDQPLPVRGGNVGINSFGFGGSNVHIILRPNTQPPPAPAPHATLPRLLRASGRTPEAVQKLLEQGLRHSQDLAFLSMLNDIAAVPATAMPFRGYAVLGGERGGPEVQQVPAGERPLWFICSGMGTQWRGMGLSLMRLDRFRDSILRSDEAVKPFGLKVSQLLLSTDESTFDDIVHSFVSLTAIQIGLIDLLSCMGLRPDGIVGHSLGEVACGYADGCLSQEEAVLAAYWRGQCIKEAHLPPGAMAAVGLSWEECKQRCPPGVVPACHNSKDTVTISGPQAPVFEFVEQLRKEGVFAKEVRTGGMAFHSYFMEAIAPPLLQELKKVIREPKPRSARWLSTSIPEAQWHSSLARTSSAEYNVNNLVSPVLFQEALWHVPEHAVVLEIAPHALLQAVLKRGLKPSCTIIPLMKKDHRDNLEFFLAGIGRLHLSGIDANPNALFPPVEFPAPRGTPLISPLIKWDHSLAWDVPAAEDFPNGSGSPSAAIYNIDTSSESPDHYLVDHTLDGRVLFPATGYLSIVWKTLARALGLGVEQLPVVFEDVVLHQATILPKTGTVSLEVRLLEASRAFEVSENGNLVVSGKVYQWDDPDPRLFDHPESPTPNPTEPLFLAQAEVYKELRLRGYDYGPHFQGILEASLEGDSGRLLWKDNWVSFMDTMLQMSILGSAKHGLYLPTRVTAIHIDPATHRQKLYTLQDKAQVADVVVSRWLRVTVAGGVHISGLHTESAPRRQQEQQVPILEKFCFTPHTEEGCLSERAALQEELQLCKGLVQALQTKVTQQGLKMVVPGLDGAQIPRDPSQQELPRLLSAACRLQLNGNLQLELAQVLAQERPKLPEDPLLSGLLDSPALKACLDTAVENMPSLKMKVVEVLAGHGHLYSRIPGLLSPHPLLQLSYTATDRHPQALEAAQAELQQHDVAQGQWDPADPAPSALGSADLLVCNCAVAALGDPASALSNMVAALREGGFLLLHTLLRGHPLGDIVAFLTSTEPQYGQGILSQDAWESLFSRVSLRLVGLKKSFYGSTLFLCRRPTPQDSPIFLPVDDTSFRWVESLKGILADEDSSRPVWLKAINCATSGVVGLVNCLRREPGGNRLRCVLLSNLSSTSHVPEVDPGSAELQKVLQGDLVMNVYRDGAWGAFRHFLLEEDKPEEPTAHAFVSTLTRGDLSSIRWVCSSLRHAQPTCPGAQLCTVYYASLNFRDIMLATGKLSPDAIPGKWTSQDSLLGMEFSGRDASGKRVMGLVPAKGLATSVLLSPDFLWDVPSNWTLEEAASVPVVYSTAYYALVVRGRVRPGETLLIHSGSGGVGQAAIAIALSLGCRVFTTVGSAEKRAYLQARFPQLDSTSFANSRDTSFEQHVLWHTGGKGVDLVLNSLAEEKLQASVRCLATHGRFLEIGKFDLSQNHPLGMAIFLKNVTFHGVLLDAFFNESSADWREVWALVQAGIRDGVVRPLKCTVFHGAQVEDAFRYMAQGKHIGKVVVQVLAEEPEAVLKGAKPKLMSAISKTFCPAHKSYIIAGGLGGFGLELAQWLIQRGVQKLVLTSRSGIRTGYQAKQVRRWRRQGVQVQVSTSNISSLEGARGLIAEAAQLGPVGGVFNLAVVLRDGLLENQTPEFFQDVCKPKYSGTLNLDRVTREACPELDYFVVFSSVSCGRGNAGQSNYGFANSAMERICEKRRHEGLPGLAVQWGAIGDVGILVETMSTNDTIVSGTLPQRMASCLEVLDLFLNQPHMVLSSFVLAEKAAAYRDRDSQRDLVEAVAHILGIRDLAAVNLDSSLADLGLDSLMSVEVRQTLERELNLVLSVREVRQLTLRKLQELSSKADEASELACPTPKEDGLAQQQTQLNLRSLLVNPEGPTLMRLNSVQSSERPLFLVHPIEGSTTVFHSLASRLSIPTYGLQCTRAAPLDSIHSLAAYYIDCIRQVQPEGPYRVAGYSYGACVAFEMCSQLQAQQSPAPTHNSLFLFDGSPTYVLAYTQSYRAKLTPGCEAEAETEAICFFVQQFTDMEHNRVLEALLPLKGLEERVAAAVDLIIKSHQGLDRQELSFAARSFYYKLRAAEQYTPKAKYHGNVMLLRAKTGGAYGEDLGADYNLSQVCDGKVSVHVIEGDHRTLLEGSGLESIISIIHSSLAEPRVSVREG

Consider `COc1cc(NC(=O)COc2ccccc2[N+](=O)[O-])ccc1NC(=O)c1cccs1`, for which, in assay [1], the half-maximal activity concentration (AC50) was 10.1 µM (active). In addition, the EC50 at Melanocortin receptor 4 is > 89.2 µM (inactive). Also, in assay [2], the “Absolute IC50 (CHOP)” value was 10 µM.
Regarding `O=C(Nc1nc2ccccc2n1Cc1ccc(Cl)cc1)c1ccco1`, the EC50 in assay [3] was 1.72 µM (active); in assay [4] it was > 20 µM (inactive); with HEK293 [7] it was > 20 µM (inactive); in [10] it was > 60 µM (not active). The IC50 with HEK293 [5] is > 20 µM (inactive); in assay [6], > 20 µM (inactive); with HEK293 [8], > 20 µM (inactive); at Interleukin-8 [9] it was > 25 µM (inactive); with HEK293 [11] it was > 20 µM (inactive); with HEK293 [12] it was > 20 µM (inactive). For the same molecule, the IC50 in assay [13] was 3.47 µM (active); on Interleukin-8 [14], > 25 µM (inactive); in the assay with HEK293 [15], 1.96 µM (active); at Tumor necrosis factor, > 20 µM (inactive); in assay [16], 3.63 µM (active); in assay [17], > 20 µM (inactive). In the assay on HEK293 [18], the IC50 was > 20 µM (inactive).
`Cn1cc(C=Nn2cnc3scc(-c4ccc(Cl)cc4)c3c2=O)c2ccccc21`: the IC50 in the assay with J774.A1 is < 0.05 µM (inactive).
With `Cc1nn2c(O)cc(-c3ccc([N+](=O)[O-])cc3)nc2c1-c1ccccc1`, the results for the EC50 (in assay [19]; in the assay with Streptococcus) were 0.662 µM (active) and 1.44 µM (active), respectively. For the same molecule, on fMet-Leu-Phe receptor, the Ki was > 66.7 µM (inactive). In addition, the IC50 was 30.2 µM (active) in assay [20]; > 66.6 µM (inactive) on Beta-galactosidase; 11.2 µM (active) on Fatty acid synthase [21]; 36.5 µM (active) on Genome polyprotein; 8.02 µM (active) in assay [22]; 6.29 µM (active) on Fatty acid synthase [23]. Further, the half-maximal cytotoxic concentration (CC50) with Vero is 29.6 µM (active).
Consider `CS(=O)(=O)C(=Cc1cccn1S(=O)(=O)c1ccccc1)S(C)(=O)=O`, for which the results for the IC50 in assay [24] and in assay [25] were > 20 µM (inactive) and > 20 µM (not active), respectively.
In the case of `C=CCSc1nnc2nc3c(nn12)c1cc(C)ccc1n3CC=C`, on Bcl-2-like protein 10, the IC50 is > 100 µM (inactive).
